Results as given in US6589751B2, “Immonological detection of the homocystamide adduct and a thiolactone immunoassay for endogeneous homocysteine” (MCW Research Foundation, priority 1997, dated 2003).
Entries after “also recorded” stand apart in the source; their conditions may differ.

Experiments:
Type in all cases: binding, rabbit
[1] = tested on: antiserum to homocystamide-LDL adduct; assay: competition ELISA with antiserum (1:700), solid phase homocystamide-LDL adduct; settings: competitor against solid phase homocystamide-LDL adduct
Description: Antiserum obtained as described in FIG. 1 was added to Millipore 96-well plates containing pre-adsorbed homocystamide-LDL adduct (100 μl, 10 μg/ml) at a limiting dilution (1:700) in the indicated concentrations of competitors (●, homocystamide-LDL adduct, ∘, native LDL, □, acetylated LDL, ▴, methylated LDL, ▪, methylated LDL treated with homocysteine thiolactone). Following a 12 hour incubation, antibody bound was quantified as described in FIG. 2. […] This experiment is representative of 3 independent experiments. (n=3 for each data point. Data points are the mean±SEM).
Antiserum obtained as described in FIG. 1 was added to Millipore 96-well plates containing pre-adsorbed homocystamide-LDL adduct (100 μl, 10 μg/ml) at a limiting dilution (1:700) in the indicated concentrations of competitors (●, Cu^2+-oxidized homocystamide-LDL adduct, ▪, Cu^2+-oxidized LDL, ▴, homocysteine). Following a 12 hour incubation, antibody bound was quantified as described in FIG. 1. […] This experiment is representative of 3 independent experiments. (n=3 for each data point. Data points are the mean±SEM).
Antiserum obtained as described in FIG. 1 was added to Millipore 96-well plates containing pre-adsorbed homocystamide-LDL adduct (100 μl, 10 μg/ml) at a limiting dilution (1:700) in the indicated concentrations of competitors (▴, ●, ▪, homocystamide-LDL, -HDL, and -lipoprotein-deficient serum proteins isolated from homocysteine thiolactone-treated plasma, and freshly drawn plasma without homocysteine thiolactone treatment, Δ). Following a 12 hour incubation, antibody bound following a 2-hour incubation, antibody bound was quantified as described in FIG. 1 using horseradish peroxidase-linked goat-anti-rabbit IgG (heavy and light chains). […] (n=4 for each data point. Data points are the mean±SEM). […] (This experiment is representative of 3 independent experiments. Data points are the mean of duplicate measurements.)
Briefly, 96-well plates were initially coated with homocystamide-LDL adduct (100 μl, 10 μg/ml). […] Immunoglobulin classes were determined using goat-anti-rabbit-μ-chain-specific, -heavy chain specific, and -heavy and light chain specific secondary antibodies that were linked to horseradish peroxidase. In order to determine antibody specificity, competition experiments were employed, using a limiting dilution (1:300) of purified antibody. Horseradish peroxidase-labeled goat-anti rabbit (heavy and light chain-specific) was used as a substrate, and the reaction was quenched by the addition of H2SO4 (100 μl, 1.8 M). The absorbance was measured at 450 nm in a 96-well plate reader.
Homocysteine thiolactone-treated LDL (10 μg/ml) was coated onto 96-well plates.

[2] = target: purified polyclonal anti-homocystamide adduct antibody; assay: competition ELISA with purified polyclonal antibody (1:400), plates coated with homocystamide-BSA adduct
Description: Microtiter plate preparation. BSA (10 mg/ml in 1M borate, pH 8.4) was incubated for 6 hours at 25° C. in the presence of homocysteine thiolactone (50 mM). Following incubation, excess homocysteine thiolactone was removed by passing the sample down a column pre-equilibrated with NaCO3 (100 mM, pH 9.6). Homocystamide-BSA adduct was diluted to 5 μg/ml in NaCO3 (100 mM, pH 9.6), and 200 μl/well was added to polystyrene microtiter plates (11). These plates were incubated overnight at 4° C., rinsed in PBS, and either used immediately or covered and stored in PBS for future use.
Preparation of a standard curve. In order to prepare a standard curve of known homocysteine concentrations, the indicated concentrations of homocysteine were incubated in the presence of HCl (6N) and heated at 60° C. for 2 hours. […] These solutions were used in a competitive antibody binding assays in parallel with “test solutions” that were analyzed for homocysteine concentrations.
Immunoassay. […] The reactions were quenched after 30 minutes by the addition of H2SO4 (1.8N) and read at 450 nm. […]
Determination of antibody specificity. Antibody specificity for homocystamide-BSA adduct was determined. […] Results of antibody binding are expressed as B/B0, in which B is the % antibody binding in the presence of competitor, and B0 is the % antibody binding in the absence of competitor. […]

[3] = tested on: antiserum to homocystamide-LDL adduct; assay: solid phase ELISA serum dilution curve on homocystamide adducts of other proteins; settings: protein coated on solid phase
Description: Solid phase ELISA techniques for antibody characterization. Solid phase indirect antibody capture techniques were used in all assays and have been described elsewhere (10, 34). Briefly, 96-well plates were initially coated with homocystamide-LDL adduct (100 μl, 10 μg/ml). For antibody titer determinations, the antisera were diluted at concentrations as indicated in the “Results” section. We defined antibody titers as the inverse of the greatest serum dilution in which a significant difference (p<0.05) between the percentage antibody bound from the antiserum and the pre-immune serum was observed. Immunoglobulin classes were determined using goat-anti-rabbit-μ-chain-specific, -heavy chain specific, and -heavy and light chain specific secondary antibodies that were linked to horseradish peroxidase. In order to determine antibody specificity, competition experiments were employed, using a limiting dilution (1:300) of purified antibody. […] The absorbance was measured at 450 nm in a 96-well plate reader.
We sought to determine whether or not homocystamide adducts of other proteins could also be used in order to measure antibody titers. […] This curve resembled the serum dilution curve obtained in FIG. 4, as the antiserum recognized both homocystamide-BSA and homocystamide-hemoglogin adduct, indicated by antiserum dilution-dependent increase in the absorbance at 450 nm.

[4] = tested on: purified polyclonal antibody directed against the homocystamide adduct; assay: competition ELISA with purified polyclonal antibody (1:300), solid phase homocystamide-LDL adduct; settings: for IC50 values, D,L- versus L-homocystamide-BSA compared: competitor 0-500 μg/ml, P>0.05, data not shown
Description: Solid phase ELISA techniques for antibody characterization. Solid phase indirect antibody capture techniques were used in all assays and have been described elsewhere (10, 34). Briefly, 96-well plates were initially coated with homocystamide-LDL adduct (100 μl, 10 μg/ml). For antibody titer determinations, the antisera were diluted at concentrations as indicated in the “Results” section. We defined antibody titers as the inverse of the greatest serum dilution in which a significant difference (p<0.05) between the percentage antibody bound from the antiserum and the pre-immune serum was observed. Immunoglobulin classes were determined using goat-anti-rabbit-μ-chain-specific, -heavy chain specific, and -heavy and light chain specific secondary antibodies that were linked to horseradish peroxidase. In order to determine antibody specificity, competition experiments were employed, using a limiting dilution (1:300) of purified antibody. Horseradish peroxidase-labeled goat-anti rabbit (heavy and light chain-specific) was used as a […], and the reaction was quenched by the addition of H2SO4 (100 μl, 1.8 M). The absorbance was measured at 450 nm in a 96-well plate reader.
Purification of antiserum. Polyclonal rabbit-anti-homocystamide antiserum was obtained following the 4th immunization of New Zealand White rabbits with homologous homocystamide-LDL adduct (0.5 mg in Freund's adjuvant) as described previously (34). A saturated solution of ammonium sulfate was added dropwise to the antiserum while stirring until the solution was 25% saturated with ammonium sulfate. This mixture was incubated overnight at 4° C. The mixture was centrifuged, and pellet was discarded. Ammonium sulfate was added to the supernatant while stirring until the final concentration of the solution was 50% ammonium sulfate. This mixture was incubated overnight at 4° C. The mixture was centrifuged, and the supernatant was discarded. The pellet was brought up in and dialyzed against Tris (10 mM, pH 7.5). […]

Compound | competition for binding to the antiserum (dose-dependent decrease in %B/B0) [1] | IC50 values, D,L- versus L-homocystamide-BSA compared [4] | other results
N[C@@H](CCS)C(=O)O [homocysteine] | Neither homocysteine, homocystine (homocysteine disulfide), nor Cu^2+-oxidized LDL competed for binding | – | competition for binding to the antiserum (dose-dependent decrease in %B/B0) ([1]; listed as free homocysteine): did not compete for binding
homocystamide-BSA adduct: BSA treated with homocysteine thiolactone; printed as BSA in the IC50 sentence of b114 | – | – | IC50, inhibition of antibody binding (B/B0) [2]: approximately 200 μg/ml; recognition by the antiserum (dilution-dependent increase in absorbance at 450 nm) [3]: recognized
N[C@@H](CCSSCC[C@H](N)C(=O)O)C(=O)O [homocystine] | neither BSA nor homocysteine disulfide (homocystine) were recognized; also recorded: Neither homocysteine, homocystine (homocysteine disulfide), nor Cu^2+-oxidized LDL competed for binding | – | competition / recognition by purified polyclonal antibody ([4]; purified polyclonal antibody 1:300, solid phase homocystamide-LDL): much less affinity than protein-homocystamide adducts; also recorded: recognized, however with much lower affinity
L-homocystamide-BSA: BSA incubated with L-homocysteine thiolactone | – | not significantly different | –
D,L-homocystamide-BSA: BSA incubated with D,L Homocysteine thiolactone | – | not significantly different | –
